Measurements taken from US8367087B2, “Soil amendment compositions and methods for using the same” (priority 1998, dated 2013).

Tested on: J2 larvae of the Root Knot Nematode (Meloidogyne incognita)
Experiment: Touch response of J2 larvae after 24 hours exposure to predisposing agents
Type: in vivo
Protocol: The merits of alternative predisposing agents were examined by subjecting J2 larvae of the Root Knot Nematode (Meloidogyne incognita) to solutions of lignosulfonate and gallic acid. J2 larvae were exposed 24 hours to various concentrations of the materials in shallow 50 ml beakers. Following exposure, nematodes were inspected for activity level using touch response: […]

O=C(O)c1cc(O)c(O)c(O)c1 [Gal Ac, Gallic Acid]
Control % (5 ppm): 30.7% | active, responding nematodes per total examined (viable/total), Mean (5 ppm): 312/450 | active, responding nematodes per total examined (viable/total), Replication 1 (5 ppm): 305/462 | active, responding nematodes per total examined (viable/total), Replication 2 (5 ppm): 316/440 | active, responding nematodes per total examined (viable/total), Replication 3 (5 ppm): 326/447 | active, responding nematodes per total examined (viable/total), Replication 4 (5 ppm): 302/450 | active, responding nematodes per total examined (viable/total), Total (5 ppm): 1249/1799 | Control % (25 ppm): 47.7% | active, responding nematodes per total examined (viable/total), Mean (25 ppm): 239/457 | active, responding nematodes per total examined (viable/total), Replication 1 (25 ppm): 250/458 | active, responding nematodes per total examined (viable/total), Replication 2 (25 ppm): 248/449 | active, responding nematodes per total examined (viable/total), Replication 3 (25 ppm): 232/459 | active, responding nematodes per total examined (viable/total), Replication 4 (25 ppm): 225/462 | active, responding nematodes per total examined (viable/total), Total (25 ppm): 955/1828 | Control % (100 ppm): 60.9% | active, responding nematodes per total examined (viable/total), Mean (100 ppm): 176/450 | active, responding nematodes per total examined (viable/total), Replication 1 (100 ppm): 193/450 | active, responding nematodes per total examined (viable/total), Replication 2 (100 ppm): 185/448 | active, responding nematodes per total examined (viable/total), Replication 3 (100 ppm): 176/436 | active, responding nematodes per total examined (viable/total), Replication 4 (100 ppm): 150/464 | active, responding nematodes per total examined (viable/total), Total (100 ppm): 704/1798 | Control % (1000 ppm): 92.7% | active, responding nematodes per total examined (viable/total), Mean (1000 ppm): 33/452 | active, responding nematodes per total examined (viable/total), Replication 1 (1000 ppm): 25/449 | active, responding nematodes per total examined (viable/total), Replication 2 (1000 ppm): 39/444 | active, responding nematodes per total examined (viable/total), Replication 3 (1000 ppm): 40/454 | active, responding nematodes per total examined (viable/total), Replication 4 (1000 ppm): 27/460 | active, responding nematodes per total examined (viable/total), Total (1000 ppm): 131/1807
